{
  "source": "BindingDB's records for doi:10.1111/cbdd.12863",
  "about": "(Guangzhou Institutes of Biomedicine and Health, Chinese …, 2017)",
  "key": {"[1]": {"biological_target": "Epithelial discoidin domain-containing receptor 1 (Homo sapiens, UniProt Q08345)", "sequence (Q08345 whole entry, the tested form may be a part)": "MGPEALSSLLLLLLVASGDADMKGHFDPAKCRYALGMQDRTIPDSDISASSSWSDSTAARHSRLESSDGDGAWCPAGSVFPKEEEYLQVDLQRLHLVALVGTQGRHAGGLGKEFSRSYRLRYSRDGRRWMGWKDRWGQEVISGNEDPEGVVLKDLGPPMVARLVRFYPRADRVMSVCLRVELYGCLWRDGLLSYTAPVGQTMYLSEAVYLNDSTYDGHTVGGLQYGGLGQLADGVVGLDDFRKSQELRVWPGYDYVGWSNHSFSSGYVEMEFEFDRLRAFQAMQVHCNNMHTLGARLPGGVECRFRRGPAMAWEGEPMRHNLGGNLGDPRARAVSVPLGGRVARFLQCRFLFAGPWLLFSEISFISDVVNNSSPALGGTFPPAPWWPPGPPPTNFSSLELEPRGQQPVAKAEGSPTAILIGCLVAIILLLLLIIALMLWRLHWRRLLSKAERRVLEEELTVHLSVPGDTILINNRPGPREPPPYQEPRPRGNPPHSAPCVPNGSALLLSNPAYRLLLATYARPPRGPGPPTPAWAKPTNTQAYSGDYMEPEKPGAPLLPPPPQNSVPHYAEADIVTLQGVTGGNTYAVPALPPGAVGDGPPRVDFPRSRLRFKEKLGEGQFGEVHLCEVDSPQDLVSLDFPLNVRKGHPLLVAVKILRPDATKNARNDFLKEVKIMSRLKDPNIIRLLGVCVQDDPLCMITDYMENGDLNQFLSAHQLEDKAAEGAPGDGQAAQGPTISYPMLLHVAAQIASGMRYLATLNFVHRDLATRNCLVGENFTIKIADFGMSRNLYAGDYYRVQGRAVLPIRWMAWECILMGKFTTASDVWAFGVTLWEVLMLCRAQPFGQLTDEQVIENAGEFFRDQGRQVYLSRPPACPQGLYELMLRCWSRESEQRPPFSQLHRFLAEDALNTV", "assay": "LanthaScreen Eu Kinase Activity Assay", "settings": "pH 7.5; 25 °C", "experimental": "(§1) The effects of compounds on the kinases DDR1 and DDR2 were assessed by using a LanthaScreen Eu kinase activity assay technology (Invitrogen, Carlsbad, CA, USA). […] Reaction buffer for the kinase reaction consists of 50 mm HEPES pH 7.5, 0.01% BRIJ-35, 10 mm MgCl2, and 1 mm EGTA. The concentration of fluorescein-polyGAT substrate (Invitrogen) in the assay was […] reactions were initiated with the addition of […] in the presence of serial dilutions of compounds. The reactions were allowed to proceed for 1 hour at room temperature before a 10 μL preparation of EDTA (20 mm) and Eu-labeled antibody (4 nm) in TR-FRET dilution buffer was added. The final concentration of antibody in the assay well was 2 nm, and the final concentration of EDTA was 10 mm."}, "[2]": {"biological_target": "T1, Discoidin domain-containing receptor 2 (Homo sapiens, UniProt Q16832)", "T1 sequence (Q16832 whole entry)": "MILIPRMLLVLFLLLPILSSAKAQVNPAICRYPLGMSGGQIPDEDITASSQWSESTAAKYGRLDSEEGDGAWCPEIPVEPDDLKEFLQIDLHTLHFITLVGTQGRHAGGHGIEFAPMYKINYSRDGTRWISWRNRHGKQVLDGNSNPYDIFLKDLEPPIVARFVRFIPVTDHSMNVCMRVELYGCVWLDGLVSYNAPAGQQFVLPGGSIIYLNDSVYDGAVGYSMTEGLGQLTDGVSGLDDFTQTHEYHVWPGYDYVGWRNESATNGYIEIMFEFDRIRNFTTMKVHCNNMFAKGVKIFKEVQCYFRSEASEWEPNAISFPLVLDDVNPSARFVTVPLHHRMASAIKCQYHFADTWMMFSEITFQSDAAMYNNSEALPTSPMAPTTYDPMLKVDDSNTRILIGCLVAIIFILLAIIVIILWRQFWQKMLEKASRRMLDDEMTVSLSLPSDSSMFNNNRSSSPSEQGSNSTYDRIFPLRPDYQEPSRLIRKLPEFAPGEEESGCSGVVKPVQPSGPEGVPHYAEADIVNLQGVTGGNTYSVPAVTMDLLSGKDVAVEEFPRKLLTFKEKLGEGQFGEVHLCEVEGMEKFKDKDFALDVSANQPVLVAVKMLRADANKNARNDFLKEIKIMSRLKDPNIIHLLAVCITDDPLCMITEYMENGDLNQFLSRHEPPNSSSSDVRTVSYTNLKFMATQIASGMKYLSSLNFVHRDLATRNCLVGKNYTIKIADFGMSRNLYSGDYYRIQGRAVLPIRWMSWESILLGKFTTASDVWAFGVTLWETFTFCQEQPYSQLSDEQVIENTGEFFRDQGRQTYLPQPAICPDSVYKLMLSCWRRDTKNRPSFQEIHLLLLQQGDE", "assay": "LanthaScreen Eu Kinase Activity Assay", "settings": "pH 7.5; 25 °C", "experimental": "as §1"}},
  "data": [
    {"smiles": "CCS(=O)(=O)N1CCC(Nc2cc(Nc3ncc(C(=O)Nc4c(C)cccc4Cl)s3)nc(C)n2)C1", "note": "(stereo unspecified) [N-(2-chloro-6-methylphenyl)-2-((6-((1-(ethylsulfonyl)pyrrolidin-3-yl)amino)-2-methylpyrimidin-4-yl)amino)thiazole-5-carboxamide (5j)]", "values": [
      {"measurement": "IC50", "setting": "[1]", "value": 48.5, "unit": "nM"},
      {"measurement": "IC50", "setting": "[2]", "value": 156, "unit": "nM"}
    ]},
    {"smiles": "Cc1nc(Nc2ncc(C(=O)Nc3c(C)cccc3Cl)s2)cc(C2CCN(C(=O)Oc3ccccc3)C2)n1", "note": "(stereo unspecified) [Phenyl 3-(6-((5-((2-chloro-6-methylphenyl)carbamoyl)thiazol-2-yl)amino)-2-methylpyrimidin-4-yl)pyrrolidine-1-carboxylate (5g)]", "values": [
      {"measurement": "IC50", "setting": "[1]", "value": 7.51, "unit": "nM"},
      {"measurement": "IC50", "setting": "[2]", "value": 59.9, "unit": "nM"}
    ]},
    {"smiles": "Cc1nc(Nc2ncc(C(=O)Nc3c(C)cccc3Cl)s2)cc(N2CCN(C(=O)Oc3ccccc3)CC2)n1", "note": "[Phenyl 4-(6-((5-((2-chloro-6-methylphenyl)carbamoyl)thiazol-2-yl)amino)-2-methylpyrimidin-4-yl)-piperazine-1-carboxylate (3g)]", "values": [
      {"measurement": "IC50", "setting": "[1]", "value": 7.14, "unit": "nM"},
      {"measurement": "IC50", "setting": "[2]", "value": 21.3, "unit": "nM"}
    ]}
  ]
}
